Measurements from patent US9758459B2, “Allosteric modulators of factor XIa as anticoagulant agents” (VIRGINIA COMMONWEALTH UNIVERSITY, priority 2012, dated 2017).
“And” between values parts separate entries of the source, which are not always exact repeats. Equal values may be shown once. Read-outs that look alike come from different tables or passages of the source.

Columns and labels:
human FXIa [1] = target: T1, human FXIa (Homo sapiens, UniProt P03951); assay: Inhibition of FXIa activation of FIX, Western blotting; assay type: biochemical
T1 construct: purchased Haematologic Technologies (Essex Junction, Vt.); host or cells: human plasma
Protocol: (§1) Plasma FIX (500 nM) was incubated with human FXIa (3 nM) in 50 mM Hepes buffer, pH 7.4, containing 125 mM NaCl, 5 mM CaCl2, and 0.1 mg/mL bovine serum albumin at 24° C. […] The primary antibody was goat anti-human FIX polyclonal IgG (Enzyme Research Laboratories, South Bend, Tenn.), and the secondary antibody was horseradish peroxidase-conjugated anti-goat IgG. Detection was by chemiluminescence. […] The inhibition profile was determined over a range of inhibitor concentrations to determine the IC50 of the enzyme-inhibitor complex. The KM of the substrate for its enzyme was used to identify the concentration of the substrate to be used for inhibition studies. […] Active site concentrations for preparations of FXIa were determined by titrations with human antithrombin in an S-2366 cleavage assay. The reaction was monitored using a SpectraMax 340 microtiter plate reader (Molecular Devices Corp., Sunnyvale, Calif.) with a reaction volume of 100 μL and path length of 3 mm. Each assay was performed in triplicate. The concentration of S-2366 was measured using an absorption coefficient of 8,266 M-1cm-1 at λ342 nm, while the free p-nitroaniline concentration was calculated using an absorption coefficient of 9,933 M cm^−1 at λ405 nm. The data was fitted using the standard Michaelis-Menten equation to determine the KM and VMAX. Results

factor Xa = target: T2, factor Xa (Homo sapiens, UniProt P00742); assay: Factor Xa chromogenic substrate hydrolysis assay; assay type: biochemical
T2 construct: purchased Haematologic Technologies (Essex Junction, Vt.); host or cells: human plasma
Protocol: as §1
(§2) Inhibition of Proteases of the Coagulation and Digestive Systems by 16S. The inhibition potential of 500 μM SAM (16S, 15S, 13S) against coagulation enzymes including thrombin and factor Xa and digestive enzymes including trypsin and chymotrypsin was evaluated using chromogenic substrate hydrolysis assays reported in the literature.^2,3,6 These assays were performed using substrates appropriate for the enzyme being studied under conditions closest to the physiological condition (37° C. and pH 7.4), except for thrombin, which was performed at 25° C. and pH 7.4. The concentrations of enzymes and substrates in microplate wells, respectively, were: 6 nM and 50 μM for thrombin; 1.09 nM and 125 μM for factor Xa, 2.5 ng/ml and 80 μM for bovine trypsin; and 500 ng/ml and 240 μM for bovine chymotrypsin. The ratio of the proteolytic activity of an enzyme in the presence of the sulfated QAO to that in its absence was used to calculate percent inhibition (%).

thrombin = target: T3, thrombin (Homo sapiens, UniProt P00734); assay: Thrombin chromogenic substrate hydrolysis assay; assay type: biochemical
T3 construct: purchased Haematologic Technologies (Essex Junction, Vt.); host or cells: human plasma
Protocol: as §1, §2

C57Bl/6 mice = assay: FeCl3 carotid artery thrombosis model; assay type: in vivo
Protocol: Exposure of the carotid artery of C57Bl/6 mice to FeCl3 (either 3.5% or 5.0%) results in formation of an occlusive platelet-rich thrombus within 15 minute.

FXIa wild type (FXIa-WT) = target: T4, FXIa wild type (FXIa-WT) (Homo sapiens, UniProt P03951); assay: Michaelis-Menten kinetics of S-2366 hydrolysis by full-length factor XIa; assay type: biochemical
T4 construct: made in house; host or cells: HEK-293
Protocol: as §1

human FXIa [2] = target: T1, human FXIa; assay: Inhibition of FXIa by SPGG in the presence of UFH (competition); assay type: biochemical
Protocol: Solvent A consisted of 25 mM n-hexylamine in water containing 0.1% (v/v) formic acid, while solvent B consisted of 25 mM n-hexylamine in acetonitrile-water mixture (3:1 v/v) containing 0.1% (v/v) formic acid. […] The sample was first monitored for absorbance in the range of 190-400 nm and then directly introduced into the mass spectrometer. ESI-MS detection was performed in positive ion mode for which the capillary voltage was 4 kV, cone voltage was 20 V, desolvation temperature was 350° C. and nitrogen gas flow was maintained at 650 L/hr. Mass scans were collected in the range of 1000-2048 amu within 0.25 s and several of these added to enhanced signal-to-noise ratio. Direct Inhibition of Factor XIa. […] After 10 min incubation, 5 μL factor XIa substrate (345 μM) was rapidly added and the residual FXIa activity was measured from the initial rate of increase in absorbance at 405 nm. […] Relative residual FXIa activity at each concentration of the inhibitor was calculated from the ratio of FXIa activity in the presence and absence of the inhibitor. Logistic equation 1 was used to fit the dose-dependence of residual protease activity to obtain the potency (IC50) and efficacy (ΔY) of inhibition.
A more quantitative test of competitive binding is the Dixon-Webb relationship, which predicts the effect of an ideal competitor on a measured parameter, e.g. KD or IC50.

human plasma [3] = assay: Activated partial thromboplastin time (APTT) plasma clotting assay; assay type: biochemical
Protocol: (§3) Plasma clotting assays, prothrombin and activated partial thromboplastin time (PT and APTT, respectively), are routinely used to assess the anticoagulation potential of new enzyme inhibitors in an in vitro setting. Whereas PT measures the effect of an inhibitor on the extrinsic pathway of coagulation, APTT measures the effect on the intrinsic pathway.
(§4) Prothrombin Time (PT) and Activated Partial Thromboplastin Time (APTT) were assessed as described in Example 1.

factor IXa = target: T5, factor IXa (Homo sapiens, UniProt P00740); assay: Factor IXa chromogenic substrate hydrolysis assay; assay type: biochemical
T5 construct: purchased Haematologic Technologies (Essex Junction, Vt.); host or cells: human plasma

human plasma [4] = assay: Prothrombin time (PT) plasma clotting assay; assay type: biochemical
Protocol: as §3, §4

T5 sequence (P00740 227-461 limits assumed): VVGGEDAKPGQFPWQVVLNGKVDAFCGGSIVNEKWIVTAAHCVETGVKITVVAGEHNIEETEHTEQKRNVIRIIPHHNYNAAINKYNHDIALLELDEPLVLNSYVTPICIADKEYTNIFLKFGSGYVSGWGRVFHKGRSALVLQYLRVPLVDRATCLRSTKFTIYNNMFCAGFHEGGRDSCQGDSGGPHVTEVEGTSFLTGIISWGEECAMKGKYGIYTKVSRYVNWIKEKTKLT
T5 sequence (P00740 47-191 partner limits assumed): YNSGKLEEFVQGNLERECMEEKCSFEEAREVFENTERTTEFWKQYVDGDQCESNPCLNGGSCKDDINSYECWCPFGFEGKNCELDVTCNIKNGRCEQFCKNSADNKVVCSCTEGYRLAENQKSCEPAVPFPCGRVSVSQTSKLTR
T2 sequence (P00742 235-488 limits assumed): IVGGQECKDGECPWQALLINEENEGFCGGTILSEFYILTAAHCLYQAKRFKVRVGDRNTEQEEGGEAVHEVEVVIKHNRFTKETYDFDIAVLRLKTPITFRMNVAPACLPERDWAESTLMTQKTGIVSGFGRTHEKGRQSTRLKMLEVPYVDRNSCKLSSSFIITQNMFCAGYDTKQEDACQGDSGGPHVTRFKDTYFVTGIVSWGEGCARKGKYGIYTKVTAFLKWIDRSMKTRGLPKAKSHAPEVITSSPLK
T2 sequence (P00742 41-179 partner limits assumed): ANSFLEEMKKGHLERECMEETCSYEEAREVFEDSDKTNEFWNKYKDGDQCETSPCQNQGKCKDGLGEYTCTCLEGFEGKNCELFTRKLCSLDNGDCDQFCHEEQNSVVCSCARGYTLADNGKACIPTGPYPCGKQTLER
T1 sequence (P03951 19-387 limits assumed): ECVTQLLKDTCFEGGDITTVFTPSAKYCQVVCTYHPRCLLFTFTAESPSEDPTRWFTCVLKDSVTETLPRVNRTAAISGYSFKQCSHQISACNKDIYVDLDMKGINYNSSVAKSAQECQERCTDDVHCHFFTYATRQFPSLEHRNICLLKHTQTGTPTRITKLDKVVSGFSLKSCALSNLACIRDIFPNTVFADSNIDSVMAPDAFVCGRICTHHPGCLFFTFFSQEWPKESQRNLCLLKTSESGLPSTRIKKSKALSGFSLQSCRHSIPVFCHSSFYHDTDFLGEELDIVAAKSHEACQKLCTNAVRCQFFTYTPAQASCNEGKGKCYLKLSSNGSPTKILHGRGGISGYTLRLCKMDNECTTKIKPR
T1 sequence (P03951 388-625 limits assumed): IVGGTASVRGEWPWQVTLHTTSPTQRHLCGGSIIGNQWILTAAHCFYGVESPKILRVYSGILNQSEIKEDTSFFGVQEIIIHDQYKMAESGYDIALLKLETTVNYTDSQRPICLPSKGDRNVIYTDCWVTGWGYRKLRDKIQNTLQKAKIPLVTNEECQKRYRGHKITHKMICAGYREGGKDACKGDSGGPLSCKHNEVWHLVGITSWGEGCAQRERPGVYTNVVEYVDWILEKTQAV
T4 sequence (P03951 19-387 limits assumed): as the sequence (P03951 19-387 limits assumed) above
T4 sequence (P03951 388-625 limits assumed): as the sequence (P03951 388-625 limits assumed) above

## O=C(OC[C@H]1O[C@@H](OC(=O)c2cc(OS(=O)(=O)O)c(O)c(OS(=O)(=O)O)c2)[C@H](OC(=O)c2cc(OS(=O)(=O)O)c(O)c(OS(=O)(=O)O)c2)[C@@H](OC(=O)c2cc(OS(=O)(=O)O)c(O)c(OS(=O)(=O)O)c2)[C@@H]1OC(=O)c1cc(OS(=O)(=O)O)c(O)c(OS(=O)(=O)O)c1)c1cc(OS(=O)(=O)O)c(O)c(OS(=O)(=O)O)c1 [SPGG, Sulfated Pentagalloylglucoside]
Human FXIa [1]; 3 μM SPGG, FIX 0.5 μM, after 120 min of incubation
  formation of FIXαβ: not detectable
Human FXIa [1]; read-out: efficacy of inhibition of FIX activation by FXIa
  inhibition at 3 µM: ~100%
Factor Xa
  HS: 0.8 ± 0.2
  IC50: 153 µM
  ΔY: 101.9 ± 3.5
Factor Xa; FXIa vs factor Xa
  selectivity over factor Xa: 221 fold
thrombin
  HS: 0.5 ± 0.1
  IC50: 700 µM
  ΔY: 83 ± 10
thrombin; FXIa vs thrombin
  selectivity over thrombin: 1016 fold
C57Bl/6 mice; 3.5% FeCl3, doses of 0.025 to 0.2 mg injected 10 min before FeCl3
  arteries in which thrombosis was prevented: ~100%
C57Bl/6 mice; 5.0% FeCl3, dose of 0.2 mg
  protection of vessels from occlusion: protected all vessels from occlusion
FXIa wild type (FXIa-WT); [SPGG] 0.005 μg/mL
  VMAX: 93.7 ± 3.2 mAU/min
FXIa wild type (FXIa-WT); [SPGG] 0.5 μg/mL
  VMAX: 74.6 ± 2.6 mAU/min
FXIa wild type (FXIa-WT); [SPGG] 5.0 μg/mL
  VMAX: 32.3 ± 2.1 mAU/min
FXIa wild type (FXIa-WT); [SPGG] 50.0 μg/mL
  VMAX: 17.2 mAU/min and 17.2 ± 1.2 mAU/min
FXIa wild type (FXIa-WT); [SPGG] […]
  VMAX: 56.9 ± 1.5 mAU/min
Human FXIa [2]; UFH 0 μM
  HS: 1.3 ± 0.1
  ΔY: 97.1 ± 3.2
Human FXIa [2]; UFH 0 μM, Dixon-Webb equation, read-out: IC50, predicted (converted)
  IC50: 0.689 µM
Human FXIa [2]; UFH 3.33 μM
  HS: 1.7 ± 0.2
  ΔY: 92.7 ± 6.4
Human FXIa [2]; UFH 3.33 μM, Dixon-Webb equation, read-out: IC50, predicted (converted)
  IC50: 2.24 µM
Human FXIa [2]; UFH 3.33 μM, pH 7.4, 37° C., read-out: IC50 (converted)
  IC50: 4.02 µM
Human FXIa [2]; UFH 33.3 μM
  HS: 4.0 ± 0.9
  ΔY: 58.2 ± 6.6
Human FXIa [2]; UFH 33.3 μM, pH 7.4, 37° C., read-out: IC50 (converted)
  IC50: 18 µM and 17.8 µM
Human FXIa [2]; UFH […], Dixon-Webb equation, read-out: IC50, predicted (converted)
  IC50: 0.747 µM
Human plasma [3]; at molar levels
  fold less effective than enoxaparin: 36 fold
Human plasma [3]; by weight (μg/mL)
  APTT doubling potency relative to enoxaparin (fold less): 18 fold
Human plasma [3]; human plasma
  concentration for 2-fold increase in APTT: 96 µg/mL
Factor IXa
  HS: 2.2 ± 0.6
  IC50: 655 µM
  ΔY: 100.6 ± 5.8
Factor IXa; FXIa vs factor IXa
  selectivity over factor IXa: 950 fold
Human plasma [4]
  concentration for 2-fold increase in PT: 298 µg/mL
